# Measurements reported in PMC5831360 (Nature chemical biology, 2017).
# Values joined by “and” are separate entries in the source; they are usually repeats but may differ in a detail not shown here. Equal entries are not always repeated.
# Tests used:
# [1] = tested on: GFP-SPIN1 recruitment to promoter regions of rDNA and IL1B in T778 cells; test: α-GFP ChIP-qPCR of SPIN1 chromatin association; assay type: cell-based, human; conditions: 10 μM, overnight
# [2] = tested on: SPIN1 target genes in GFP-SPIN1 transfected T778 cells; test: RT-qPCR of SPIN1 target genes after GFP-SPIN1 overexpression; assay type: cell-based, human; conditions: 10 μM, 24 h after GFP-SPIN1 transfection
# [3] = molecular target: MBT domains of L3MBTL3 (Homo sapiens, UniProt Q96JM7); test: Isothermal titration calorimetry; assay type: binding; conditions: Kd for L3MBTL3, ITC counter screen
# [4] = tested on: SPIN2a/b; test: Chemiprecipitation of SPIN family members with tagged compound; assay type: binding
# [5] = molecular target: Tudor domains of PHF20 (Homo sapiens, UniProt Q9BVI0); test: Isothermal titration calorimetry; assay type: binding; conditions: Kd for PHF20, ITC counter screen
# Target sequence in this assay (Q9BVI0 83-147 limits assumed): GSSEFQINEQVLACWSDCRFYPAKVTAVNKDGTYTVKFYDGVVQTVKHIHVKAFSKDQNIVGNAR
# [6] = tested on: SPIN1 target genes (rRNA, IL1B, BST2, C1QTNF1, ALDH1A3, IFI44L) in T778 cells; test: RT-qPCR of SPIN1-regulated genes after compound treatment; assay type: cell-based, human; conditions: 4 days
# [7] = molecular target: MBT domains of L3MBTL1 (Homo sapiens, UniProt Q9Y468); test: Isothermal titration calorimetry; assay type: binding; conditions: Kd for L3MBTL1, ITC counter screen
# [8] = tested on: T778 liposarcoma cells; test: RNA-seq of compound-treated versus SPIN1 knockdown cells; assay type: cell-based, human; conditions: 10 μM, 3 days
# [9] = molecular target: SPIN4 (Homo sapiens, UniProt Q56A73); test: Chemiprecipitation of SPIN family members with tagged compound; assay type: binding
# [10] = molecular target: T1, Tudor domains of 53BP1 (Homo sapiens, UniProt Q12888); test: Isothermal titration calorimetry; assay type: binding; conditions: Kd for 53BP1, ITC counter screen
# [11] = tested on: SPIN1; conditions: cited from earlier work
# [12] = tested on: Spindlin1-H3K4me3 interaction; conditions: read-out: IC50, in vitro inhibition of Spindlin1-H3K4me3 interaction; AlphaLISA; cited from earlier work
# [13] = molecular target: GFP-53BP1 (Homo sapiens, UniProt Q12888); assay type: binding; conditions: HEK293T whole cell lysate, bead-immobilized biotinylated compound
# [14] = molecular target: GFP-SPIN1 in transfected HeLa cells (Homo sapiens, UniProt Q9Y657); test: Cellular thermal shift assay; assay type: cell-based; conditions: 20 μM, overnight
# [15] = molecular target: SPIN1-H3K4me3 interaction (Homo sapiens, UniProt Q9Y657); test: Competition pulldown, bead-bound H3K4me3 peptide and GST-SPIN1; assay type: binding; conditions: untagged compound, increasing concentrations
# [16] = molecular target: Tudor domains of PHF20 (Homo sapiens, UniProt Q9BVI0); test: Protein domain microarray probing with biotin-tagged compounds; assay type: binding; conditions: biotinylated compound, 1 μM, Cy3-streptavidin
# Target sequence in this assay (Q9BVI0 4-147): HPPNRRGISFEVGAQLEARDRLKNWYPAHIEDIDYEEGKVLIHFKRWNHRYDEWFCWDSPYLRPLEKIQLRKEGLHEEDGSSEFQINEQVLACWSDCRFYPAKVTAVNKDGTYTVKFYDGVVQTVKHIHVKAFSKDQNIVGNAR
# [17] = molecular target: yeast Tudor domain (SPF30^sp) (Schizosaccharomyces pombe, UniProt O94519); test: as above; assay type: binding; conditions: biotinylated compound, 1 μM, Cy3-streptavidin
# [18] = tested on: PHF20L1; test: as above; assay type: binding, human; conditions: biotinylated compound, 1 μM, Cy3-streptavidin
# [19] = molecular target: SPIN1 (SPIN1_50–262) (Homo sapiens, UniProt Q9Y657); test: Isothermal titration calorimetry; assay type: binding; conditions: read-out: dissociation constant (Kd) with SPIN1; ITC, 25 °C, pH 7.5
# [20] = molecular target: recombinant SPIN1 (Homo sapiens, UniProt Q9Y657); test: In vitro thermal shift assay; assay type: binding; conditions: 100 μM compound, 1 mg/mL SPIN1, Sypro Orange
# [21] = molecular target: GFP-SPIN1(FL) (Homo sapiens, UniProt Q9Y657); assay type: binding; conditions: HEK293 whole cell lysate, bead-immobilized biotinylated compound
# [22] = tested on: subset of MBT domains; test: Protein domain microarray probing with biotin-tagged compounds; assay type: binding, human; conditions: biotinylated compound, 1 μM, Cy3-streptavidin
# [23] = molecular target: T1, Tudor domains of 53BP1; test: as above; assay type: binding; conditions: biotinylated compound, 1 μM, Cy3-streptavidin
# [24] = molecular target: Spindlin1 (SPIN1), three Tudor domains (Homo sapiens, UniProt Q9Y657); test: as above; assay type: binding; conditions: biotinylated compound, 1 μM, Cy3-streptavidin
# [25] = molecular target: SPIN1-TCF4 interaction (Homo sapiens, UniProt Q9Y657); test: SPIN1-TCF4 interaction assay; assay type: binding
# Sequence of SPIN1-TCF4 interaction (Q9Y657 whole entry): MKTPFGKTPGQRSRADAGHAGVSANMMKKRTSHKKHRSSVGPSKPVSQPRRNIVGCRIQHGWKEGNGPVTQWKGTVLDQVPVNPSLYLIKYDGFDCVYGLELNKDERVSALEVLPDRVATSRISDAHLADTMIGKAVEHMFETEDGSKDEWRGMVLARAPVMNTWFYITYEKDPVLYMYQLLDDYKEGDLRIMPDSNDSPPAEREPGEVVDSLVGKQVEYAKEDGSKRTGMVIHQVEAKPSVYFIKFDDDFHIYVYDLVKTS
# T1 sequence (Q12888 1484-1603 limits assumed): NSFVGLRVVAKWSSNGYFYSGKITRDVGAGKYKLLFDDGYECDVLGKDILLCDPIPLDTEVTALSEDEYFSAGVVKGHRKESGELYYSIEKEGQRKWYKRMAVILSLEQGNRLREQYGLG
# Sequence of MBT domains of L3MBTL3 (Q96JM7 232-543 limits assumed): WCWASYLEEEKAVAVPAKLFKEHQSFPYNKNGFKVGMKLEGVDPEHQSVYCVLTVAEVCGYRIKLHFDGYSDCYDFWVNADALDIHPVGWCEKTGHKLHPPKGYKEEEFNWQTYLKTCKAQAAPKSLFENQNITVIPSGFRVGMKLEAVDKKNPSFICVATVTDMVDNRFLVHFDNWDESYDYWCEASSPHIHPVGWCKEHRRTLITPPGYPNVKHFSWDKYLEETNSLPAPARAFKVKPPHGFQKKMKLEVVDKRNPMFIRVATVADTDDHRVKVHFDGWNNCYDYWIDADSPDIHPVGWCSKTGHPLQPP
# Sequence of MBT domains of L3MBTL1 (Q9Y468 274-585 limits assumed): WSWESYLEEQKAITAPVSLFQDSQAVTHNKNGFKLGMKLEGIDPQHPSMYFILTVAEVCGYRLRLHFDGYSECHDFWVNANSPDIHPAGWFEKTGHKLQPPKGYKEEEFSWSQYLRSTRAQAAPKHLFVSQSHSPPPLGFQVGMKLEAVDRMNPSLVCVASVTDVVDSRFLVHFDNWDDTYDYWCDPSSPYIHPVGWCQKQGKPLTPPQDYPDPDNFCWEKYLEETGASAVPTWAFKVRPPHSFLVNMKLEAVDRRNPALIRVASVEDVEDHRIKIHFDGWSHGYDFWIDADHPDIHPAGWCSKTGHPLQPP
# Sequence of SPIN1-H3K4me3 interaction (Q9Y657 50-262): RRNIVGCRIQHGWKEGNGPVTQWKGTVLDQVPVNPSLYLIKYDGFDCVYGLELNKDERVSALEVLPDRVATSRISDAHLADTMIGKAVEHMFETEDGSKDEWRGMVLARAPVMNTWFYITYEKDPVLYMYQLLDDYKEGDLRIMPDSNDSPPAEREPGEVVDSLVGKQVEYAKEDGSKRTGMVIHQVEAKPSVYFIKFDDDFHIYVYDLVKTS
# Sequence of GFP-SPIN1 in transfected HeLa cells (Q9Y657 whole entry): as the sequence (Q9Y657 whole entry) above
# Sequence of SPIN4 (Q56A73 whole entry, the tested form may be a part): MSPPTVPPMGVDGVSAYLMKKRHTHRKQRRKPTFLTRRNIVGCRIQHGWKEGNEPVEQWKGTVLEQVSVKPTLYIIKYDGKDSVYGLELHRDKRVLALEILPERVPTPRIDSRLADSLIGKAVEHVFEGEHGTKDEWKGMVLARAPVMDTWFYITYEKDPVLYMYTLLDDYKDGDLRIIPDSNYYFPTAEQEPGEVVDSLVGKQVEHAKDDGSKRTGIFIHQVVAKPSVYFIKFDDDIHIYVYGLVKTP
# Sequence of GFP-53BP1 (Q12888 1144-1709): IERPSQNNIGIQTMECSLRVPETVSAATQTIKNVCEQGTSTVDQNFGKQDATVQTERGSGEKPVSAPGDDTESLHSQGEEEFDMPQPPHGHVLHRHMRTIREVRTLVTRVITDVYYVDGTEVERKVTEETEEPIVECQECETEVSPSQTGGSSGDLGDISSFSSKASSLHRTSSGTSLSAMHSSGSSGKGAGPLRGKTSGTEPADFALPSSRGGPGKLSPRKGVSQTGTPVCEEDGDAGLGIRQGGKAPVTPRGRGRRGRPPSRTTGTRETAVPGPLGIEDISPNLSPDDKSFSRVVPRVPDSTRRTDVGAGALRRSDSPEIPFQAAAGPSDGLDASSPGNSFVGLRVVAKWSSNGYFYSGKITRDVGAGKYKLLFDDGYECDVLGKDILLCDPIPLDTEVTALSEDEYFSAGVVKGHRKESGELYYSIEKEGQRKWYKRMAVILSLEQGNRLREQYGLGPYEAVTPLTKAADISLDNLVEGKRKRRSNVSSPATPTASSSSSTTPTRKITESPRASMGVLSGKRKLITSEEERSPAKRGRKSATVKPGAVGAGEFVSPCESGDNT
# Sequence of yeast Tudor domain (SPF30^sp) (O94519 76-139 limits assumed): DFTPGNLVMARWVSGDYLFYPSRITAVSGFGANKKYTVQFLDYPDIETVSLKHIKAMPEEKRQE
# Sequence of SPIN1 (SPIN1_50–262) (Q9Y657 50-262): as the sequence (Q9Y657 50-262) above
# Sequence of recombinant SPIN1 (Q9Y657 50-262): as above
# Sequence of Spindlin1 (SPIN1), three Tudor domains (Q9Y657 whole entry, the tested form may be a part): as the sequence (Q9Y657 whole entry) above
# Sequence of GFP-SPIN1(FL) (Q9Y657 whole entry, the tested form may be a part): as the sequence (Q9Y657 whole entry) above
structure (smiles),measurement,setting,value
O=C(c1ccc(C(=O)N2CCC(CCN3CCCC3)CC2)c(Nc2ccc(OCN3CCCC3)cc2)c1)N1CCC(CCN2CCCC2)CC1 [EML631],GFP-SPIN1 recruitment to promoter regions of rDNA and IL1B,[1],recruitment was blocked
same,SPIN1-overexpression-elevated expression of target genes,[2],dramatically attenuated
same,Kd,[3],< 100 µM and > 100 µM
same,pulldown of SPIN2a/b by tagged compound,[4],reduced pulldown
same,Kd,[5],< 100 µM and > 100 µM
same,expression levels of six SPIN1-regulated candidate genes,[6]; 10 μM,decrease in the expression levels of all six candidate genes
same,Kd,[7],< 100 µM and > 100 µM
same,transcripts down regulated in both SPIN1 knockdown and compound-treated cells,[8],655
same,interaction of tagged compound with SPIN4,[9],no interaction
same,Kd,[10],< 100 µM and > 100 µM
COc1cc2c(cc1OCCCN1CCCC1)N=C(N)C21CCC1 [A366],cell-based activity,[11],100 µM
same,IC50,[12],~0.2 µM
"O=C(c1ccc(C(=O)N2CCC(N3CCCC3)CC2)c(Nc2ccccc2)c1)N1CCC(N2CCCC2)CC1 [UNC1215, reference compound]",interaction of tagged compound with GFP-53BP1,[13],able to interact with GFP-53BP1
same,stabilization of GFP-SPIN1 at high temperatures (CETSA),[14],not with UNC1215
same,inhibition of H3K4me3 peptide - GST-SPIN1 interaction,[15],not active
O=C(c1ccc(C(=O)N2CCC(CCN3CCCC3)CC2)c(Nc2ccccc2)c1)N1CCC(CCN2CCCC2)CC1 [EML405],SPIN1-overexpression-elevated expression of target genes,[2],dramatically attenuated
same,stabilization of GFP-SPIN1 at high temperatures (CETSA),[14],stabilization
same,binding to Tudor domains of PHF20 on protein domain microarray,[16],bound strongly
same,expression levels of six SPIN1-regulated candidate genes,[6]; 20 μM,decrease in the expression levels of all six candidate genes
same,binding to yeast Tudor domain SPF30^sp on protein domain microarray,[17],bound strongly
same,inhibition of H3K4me3 peptide - GST-SPIN1 interaction,[15],higher concentrations of EML405 than EML631–633 were needed to inhibit the interaction
same,binding to PHF20L1 on protein domain microarray,[18],bound strongly
same,Kd,[19],15 µM
same,increase of melting temperature of SPIN1,[20],5 °C
same,pulldown of GFP-SPIN1 by tagged compound,[21],detected the pulldown of GFP-SPIN1
same,binding to a subset of MBT domains on protein domain microarray,[22],bound strongly
same,binding to Tudor domains of 53BP1 on protein domain microarray,[23],bound strongly
same,binding to Spindlin1 on protein domain microarray,[24],bound strongly
same,block of SPIN1-TCF4 interaction,[25],blocked this interaction
